Consider three molecules from ChEMBL document CHEMBL1201862, “PubChem BioAssay data set” (2004).

Format in all cases: functional
In assay [1] the target is T1, Cannabinoid receptor 2 (Homo sapiens, UniProt P34972). Description: SAR analysis of antagonists of the Cannabinoid Receptor 2 using an Image-Based Assay - Set 2. [Related pubchem assays (depositor defined):AID1961, AID1965].
The target of assay [2] is T2, Cannabinoid receptor 1 (Homo sapiens, UniProt P21554). Description: SAR analysis of agonists of the Cannabinoid Receptor 1 using an Image-Based Assay - Set 3. [Related pubchem assays (depositor defined):AID1961, AID1965].
Assay [3] deals with T2, Cannabinoid receptor 1. Description: SAR analysis of antagonists of the Cannabinoid Receptor 1 using an Image-Based Assay - Set 3. [Related pubchem assays (depositor defined):AID1961, AID1965].
Assay [4] has as its target G-protein coupled receptor 55 (Homo sapiens, UniProt Q9Y2T6). Put plainly: SAR analysis of selective Agonists of GPR55 using an Image-Based Assay - Set 2. [Related pubchem assays (depositor defined):AID1961, AID1965].
The target of assay [5] is T1, Cannabinoid receptor 2. Description: SAR analysis of agonists of the Cannabinoid Receptor 2 using an Image-Based Assay - Set 2. [Related pubchem assays (depositor defined):AID1961, AID1965].
The target of assay [6] is T3, G-protein coupled receptor 35 (Homo sapiens, UniProt Q9HC97). Description: SAR analysis of Antagonists of the GPR35 Receptor using an Image-Based Assay - Set 4. [Related pubchem assays (depositor defined):[…]].
Assay [7] concerns the target T3, G-protein coupled receptor 35. Put plainly: SAR analysis of Agonists of the GPR35 Receptor using an Image-Based Assay - Set 3. [Related pubchem assays (depositor defined):AID1961, AID1965].
The target of assay [8] is T4, Carboxy-terminal domain RNA polymerase II polypeptide A small phosphatase 1 (Homo sapiens, UniProt Q9GZU7).
T4 sequence (Q9GZU7 whole entry): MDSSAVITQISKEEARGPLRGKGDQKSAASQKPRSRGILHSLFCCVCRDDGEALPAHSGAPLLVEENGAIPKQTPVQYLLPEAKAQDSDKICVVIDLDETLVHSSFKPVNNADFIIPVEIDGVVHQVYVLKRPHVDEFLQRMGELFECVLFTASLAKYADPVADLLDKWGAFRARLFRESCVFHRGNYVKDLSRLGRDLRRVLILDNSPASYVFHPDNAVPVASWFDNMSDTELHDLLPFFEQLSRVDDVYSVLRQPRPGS
Description: inhibitors of CTDSP1, concentration-response testing, biochemical assay, absorbance-based, actives from ultra-high-throughput screening (AID 540297).

The target of assay [9] is Tyrosine-protein phosphatase non-receptor type 11 (Homo sapiens, UniProt Q06124). Description: SHP2 phosphatase inhibition, dose response, selectivity assay for STEP inhibitor project, biochemical (AID 602367). Particulars: read-out: IC50_Mean.
Assay [10] addresses Tyrosine-protein phosphatase non-receptor type 5 (Homo sapiens, UniProt P54829). Description: STEP phosphatase inhibitors, confirmation, biochemical, fluorescence intensity, uHTS hits (AID 602372). To be noted: read-out: IC50_Mean.
Assay [11] deals with Dual specificity protein phosphatase 3 (Homo sapiens, UniProt P51452). Put plainly: VHR phosphatase inhibition, dose response, selectivity assay for STEP inhibitor project, biochemical (AID 602374). To be noted: read-out: IC50_Mean.
The target in assay [12] is DNA dC->dU-editing enzyme APOBEC-3G (Homo sapiens, UniProt Q9HC16).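 Also: Dose-response counterscreen measuring inhibition of APOBEC3G DNA deaminase activity, run while confirming APOBEC3A inhibitors.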
The target in assay [13] is DNA dC->dU-editing enzyme APOBEC-3A (Homo sapiens, UniProt P31941). Put plainly: Dose Response confirmation of small molecule APOBEC3A DNA Deaminase Inhibitors via a fluorescence-based single-stranded DNA deaminase assay. [Related pubchem assays (depositor defined):AID493011, AID493024].
The next assay concerns the target Integrin alpha-L (Mus musculus, UniProt P24063). Put plainly: modulators of CD8 T cell-vesicle binding, dose response, powder samples, mouse 2C CD8+ cells (AID 504565).

Activity calls are given as the source filed them.

One may read the EC50 as the concentration that produces a half-maximal response.

T3 sequence (Q9HC97 whole entry): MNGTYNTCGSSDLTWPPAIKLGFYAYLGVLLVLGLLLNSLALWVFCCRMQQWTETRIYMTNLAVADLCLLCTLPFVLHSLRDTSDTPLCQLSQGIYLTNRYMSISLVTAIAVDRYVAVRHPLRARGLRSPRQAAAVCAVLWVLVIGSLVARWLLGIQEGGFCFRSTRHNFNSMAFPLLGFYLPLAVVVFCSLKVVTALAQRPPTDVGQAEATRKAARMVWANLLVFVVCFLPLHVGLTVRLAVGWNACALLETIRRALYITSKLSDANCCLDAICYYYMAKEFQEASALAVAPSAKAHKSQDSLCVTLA
T1 sequence (P34972 whole entry): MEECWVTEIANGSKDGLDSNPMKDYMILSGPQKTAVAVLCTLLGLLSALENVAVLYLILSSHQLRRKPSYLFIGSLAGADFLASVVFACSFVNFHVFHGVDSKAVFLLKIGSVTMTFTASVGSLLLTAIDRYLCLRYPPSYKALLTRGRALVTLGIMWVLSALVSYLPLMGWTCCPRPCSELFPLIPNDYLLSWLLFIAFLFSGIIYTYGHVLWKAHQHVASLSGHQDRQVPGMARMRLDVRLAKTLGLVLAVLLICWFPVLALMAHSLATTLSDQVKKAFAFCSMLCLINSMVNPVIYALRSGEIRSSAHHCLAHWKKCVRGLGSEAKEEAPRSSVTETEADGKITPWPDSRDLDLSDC
T2 sequence (P21554 whole entry): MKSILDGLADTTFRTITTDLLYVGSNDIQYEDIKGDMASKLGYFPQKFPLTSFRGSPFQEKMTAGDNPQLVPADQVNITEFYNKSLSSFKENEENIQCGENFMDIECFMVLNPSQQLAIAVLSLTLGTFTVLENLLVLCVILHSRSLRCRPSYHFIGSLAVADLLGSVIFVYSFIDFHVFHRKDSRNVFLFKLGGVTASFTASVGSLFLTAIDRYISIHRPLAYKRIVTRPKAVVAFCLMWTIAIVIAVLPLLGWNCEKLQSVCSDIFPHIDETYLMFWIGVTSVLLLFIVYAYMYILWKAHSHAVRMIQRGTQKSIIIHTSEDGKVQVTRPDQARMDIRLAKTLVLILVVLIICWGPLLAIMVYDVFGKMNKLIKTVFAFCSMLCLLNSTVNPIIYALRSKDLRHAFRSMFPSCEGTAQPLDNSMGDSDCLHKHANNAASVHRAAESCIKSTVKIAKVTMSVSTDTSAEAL
Chain of G-protein coupled receptor 55 (Q9Y2T6 whole entry): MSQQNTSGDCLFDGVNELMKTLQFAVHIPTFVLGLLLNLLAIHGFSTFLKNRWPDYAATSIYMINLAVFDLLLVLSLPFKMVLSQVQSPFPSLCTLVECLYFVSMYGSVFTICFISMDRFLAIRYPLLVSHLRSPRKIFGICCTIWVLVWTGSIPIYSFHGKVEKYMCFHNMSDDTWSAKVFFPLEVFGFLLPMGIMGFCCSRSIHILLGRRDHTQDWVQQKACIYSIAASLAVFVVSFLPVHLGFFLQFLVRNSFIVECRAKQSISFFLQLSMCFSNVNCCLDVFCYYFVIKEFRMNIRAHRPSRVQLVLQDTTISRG
Chain of DNA dC->dU-editing enzyme APOBEC-3A (P31941 whole entry): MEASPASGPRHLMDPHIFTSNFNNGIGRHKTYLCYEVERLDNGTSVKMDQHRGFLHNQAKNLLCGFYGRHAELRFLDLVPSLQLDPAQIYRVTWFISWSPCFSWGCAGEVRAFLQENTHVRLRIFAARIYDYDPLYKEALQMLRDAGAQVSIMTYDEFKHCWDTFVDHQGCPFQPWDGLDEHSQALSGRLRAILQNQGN
Chain of DNA dC->dU-editing enzyme APOBEC-3G (Q9HC16 whole entry): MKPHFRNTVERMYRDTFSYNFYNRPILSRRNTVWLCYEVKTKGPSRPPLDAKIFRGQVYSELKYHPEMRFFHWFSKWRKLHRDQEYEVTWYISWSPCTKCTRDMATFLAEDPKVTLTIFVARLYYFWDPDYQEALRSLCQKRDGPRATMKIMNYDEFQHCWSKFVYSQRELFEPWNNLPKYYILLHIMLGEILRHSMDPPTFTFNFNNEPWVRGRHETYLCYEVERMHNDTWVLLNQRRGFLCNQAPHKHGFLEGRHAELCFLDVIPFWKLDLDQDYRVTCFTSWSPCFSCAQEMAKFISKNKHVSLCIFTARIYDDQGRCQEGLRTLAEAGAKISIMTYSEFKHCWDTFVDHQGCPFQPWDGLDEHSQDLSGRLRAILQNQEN
Chain of Integrin alpha-L (P24063 whole entry): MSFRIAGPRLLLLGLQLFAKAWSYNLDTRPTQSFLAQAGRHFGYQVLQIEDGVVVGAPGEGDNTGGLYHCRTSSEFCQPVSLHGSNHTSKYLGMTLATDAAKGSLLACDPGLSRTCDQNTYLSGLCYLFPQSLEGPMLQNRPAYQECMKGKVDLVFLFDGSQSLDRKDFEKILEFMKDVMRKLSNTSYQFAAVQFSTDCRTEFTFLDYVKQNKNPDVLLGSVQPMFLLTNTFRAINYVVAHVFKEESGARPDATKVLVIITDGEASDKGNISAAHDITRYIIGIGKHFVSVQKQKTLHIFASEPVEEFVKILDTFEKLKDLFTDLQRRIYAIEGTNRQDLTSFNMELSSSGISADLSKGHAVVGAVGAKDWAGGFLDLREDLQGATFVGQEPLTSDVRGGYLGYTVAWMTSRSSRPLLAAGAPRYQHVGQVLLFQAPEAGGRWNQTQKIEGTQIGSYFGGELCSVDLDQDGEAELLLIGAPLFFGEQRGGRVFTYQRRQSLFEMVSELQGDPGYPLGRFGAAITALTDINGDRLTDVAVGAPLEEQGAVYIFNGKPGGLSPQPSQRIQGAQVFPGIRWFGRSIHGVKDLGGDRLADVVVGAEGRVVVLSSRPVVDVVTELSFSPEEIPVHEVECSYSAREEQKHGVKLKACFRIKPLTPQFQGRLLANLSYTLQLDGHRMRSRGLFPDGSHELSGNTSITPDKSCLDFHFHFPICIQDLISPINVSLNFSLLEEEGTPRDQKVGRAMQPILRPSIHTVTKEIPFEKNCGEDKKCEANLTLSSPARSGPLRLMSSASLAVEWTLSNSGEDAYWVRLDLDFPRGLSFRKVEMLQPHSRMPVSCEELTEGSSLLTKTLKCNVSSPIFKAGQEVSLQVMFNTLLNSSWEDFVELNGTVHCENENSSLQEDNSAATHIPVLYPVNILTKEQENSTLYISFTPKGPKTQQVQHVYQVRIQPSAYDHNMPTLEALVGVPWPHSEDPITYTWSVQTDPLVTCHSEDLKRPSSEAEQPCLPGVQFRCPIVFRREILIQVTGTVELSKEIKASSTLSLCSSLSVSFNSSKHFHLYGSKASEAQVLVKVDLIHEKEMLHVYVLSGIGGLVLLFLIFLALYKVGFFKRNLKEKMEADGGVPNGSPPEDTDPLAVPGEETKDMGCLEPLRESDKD
Chain of Tyrosine-protein phosphatase non-receptor type 5 (P54829 whole entry): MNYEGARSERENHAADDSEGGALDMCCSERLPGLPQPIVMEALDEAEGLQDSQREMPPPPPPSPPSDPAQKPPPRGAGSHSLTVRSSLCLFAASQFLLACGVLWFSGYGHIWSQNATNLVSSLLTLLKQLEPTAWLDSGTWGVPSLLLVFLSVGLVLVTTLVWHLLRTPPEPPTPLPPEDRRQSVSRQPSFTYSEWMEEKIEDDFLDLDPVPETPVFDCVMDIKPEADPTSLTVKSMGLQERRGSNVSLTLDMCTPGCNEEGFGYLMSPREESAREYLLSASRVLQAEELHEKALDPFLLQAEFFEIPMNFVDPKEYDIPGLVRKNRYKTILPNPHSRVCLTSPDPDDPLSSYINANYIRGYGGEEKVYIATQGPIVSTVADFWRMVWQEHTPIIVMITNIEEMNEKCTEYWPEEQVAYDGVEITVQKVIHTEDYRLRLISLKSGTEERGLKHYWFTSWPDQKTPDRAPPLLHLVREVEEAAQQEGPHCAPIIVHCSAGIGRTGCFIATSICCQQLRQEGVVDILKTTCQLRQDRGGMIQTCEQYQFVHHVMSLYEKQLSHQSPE
Chain of Dual specificity protein phosphatase 3 (P51452 whole entry): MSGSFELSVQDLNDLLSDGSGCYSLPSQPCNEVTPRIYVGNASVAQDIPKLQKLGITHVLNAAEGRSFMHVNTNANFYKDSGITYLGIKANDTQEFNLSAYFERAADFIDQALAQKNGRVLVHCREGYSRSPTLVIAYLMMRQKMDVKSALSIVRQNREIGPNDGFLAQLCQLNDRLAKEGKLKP
Chain of Tyrosine-protein phosphatase non-receptor type 11 (Q06124 whole entry): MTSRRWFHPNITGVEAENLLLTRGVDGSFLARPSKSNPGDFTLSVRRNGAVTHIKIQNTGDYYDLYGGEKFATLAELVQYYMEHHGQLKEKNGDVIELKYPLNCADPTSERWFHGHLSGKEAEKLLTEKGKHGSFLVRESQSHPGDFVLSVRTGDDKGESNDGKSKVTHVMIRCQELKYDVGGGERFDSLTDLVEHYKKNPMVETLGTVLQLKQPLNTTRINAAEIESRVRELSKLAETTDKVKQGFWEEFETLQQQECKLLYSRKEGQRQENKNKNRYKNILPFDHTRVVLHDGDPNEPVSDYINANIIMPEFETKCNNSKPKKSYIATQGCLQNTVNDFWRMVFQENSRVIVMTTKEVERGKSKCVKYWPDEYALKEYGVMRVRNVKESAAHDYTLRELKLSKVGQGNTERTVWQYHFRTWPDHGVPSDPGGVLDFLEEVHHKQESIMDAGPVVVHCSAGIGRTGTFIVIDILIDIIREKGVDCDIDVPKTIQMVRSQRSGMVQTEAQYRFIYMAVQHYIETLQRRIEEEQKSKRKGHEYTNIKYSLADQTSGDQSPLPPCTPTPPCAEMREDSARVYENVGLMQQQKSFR

For the molecule `COc1ccc(S(=O)(=O)N2CCOCC2)cc1NC(=O)c1ccc(OC(F)F)cc1`, the IC50 (at Cannabinoid receptor 2 [1]; at Cannabinoid receptor 1 [3]; in assay [6]) was > 32 µM (inactive) in each case. Further, the EC50 (on Cannabinoid receptor 1 [2]; in [4]; on Cannabinoid receptor 2 [5]; in assay [7]) was > 32 µM (inactive) each time.
Regarding `COc1cccc(N2[C@@H](CC(=O)O)c3ccc(/C=C/C(=O)O)cc3S2(=O)=O)c1`, the IC50 in [8] is 2.88 µM (active); in [9] it was 0.933 µM (active); in [10], 52.1 µM (inactive); in [11], 2.49 µM (active); in assay [12], 41.2 µM (active); in [13] it was 12.2 µM (active).
On to `O=C(COC(=O)C12CC3CC(CC(Br)(C3)C1)C2)Nc1cccc(S(=O)(=O)N2CCOCC2)c1`, for which, at Integrin alpha-L, the EC50 was 1.21 µM (active).
